# Patent EP0483928A1, “2-Saccharinylmethyl aryl carboxylates useful as proteolytic enzyme inhibitors and compositions and method of use” (STERLING WINTHROP INC., priority 1990, dated 1992)
# pKi: −log10 of the molar value.
# Target: T1, human leukocyte elastase (HLE) (Homo sapiens, UniProt P08246)
# T1 sequence (P08246 30-267): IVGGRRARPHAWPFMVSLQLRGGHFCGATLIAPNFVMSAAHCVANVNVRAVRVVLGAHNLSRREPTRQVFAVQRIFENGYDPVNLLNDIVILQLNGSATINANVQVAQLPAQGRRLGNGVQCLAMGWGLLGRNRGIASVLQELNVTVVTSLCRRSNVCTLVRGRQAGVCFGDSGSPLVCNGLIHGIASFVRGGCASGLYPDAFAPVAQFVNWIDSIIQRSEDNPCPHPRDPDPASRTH
# Experiment: Inhibition of human leukocyte elastase: rate of inactivation kon and inhibition constant Ki* (koff/kon)
# Format: biochemical
# Details: Ki* = koff/kon, calculated from measured koff and kon; not a truly reversible Ki; read-out: K*i
# Experimental: Thus, instead of measuring a Ki, a Ki* is calculated which is defined as the ratio of the koff/kon, the rate of reactivation of the enzyme to the rate of inactivation of the enzyme. The values of koff and kon are measured and Ki* is then calculated.
# The rate of inactivation, kon, of enzymatic activity was determined for the compounds tested by measuring the enzyme activity of an aliquot of the respective enzyme as a function of time after addition of the test compound. […] The rate of inactivation is then equal to [formula] where [I] is the concentration of the inhibiting compound.
# The reactivation constant, koff, is similarly determined, and the inhibition constant, Ki*, is then calculated as Ki * = koff /kon [formula]
row,pKi,Compound
1,10.24,COc1cc(C(C)C)c2c(c1)S(=O)(=O)N(COC(=O)c1c(OC)ccc(NC(C)=O)c1OC)C2=O [Example 1BR]
2,10.37,COc1cc(C(C)C)c2c(c1)S(=O)(=O)N(COC(=O)c1c(F)cccc1F)C2=O [Example 1BL]
3,10.80,COc1ccc(Cl)c(C(=O)OCN2C(=O)c3c(C(C)C)cccc3S2(=O)=O)c1Cl [Example 1AB]
4,11.00,CC(C)c1cccc2c1C(=O)N(COC(=O)c1c(F)ccc(S(=O)(=O)N3CCN(C)CC3)c1F)S2(=O)=O [Example 1AG]
5,10.60,COc1cc(C(C)C)c2c(c1)S(=O)(=O)N(COC(=O)c1c(OC)ccc([N+](=O)[O-])c1OC)C2=O [Example 1BN]
6,10.52,COCCOCCOc1cc(C(C)C)c2c(c1)S(=O)(=O)N(COC(=O)c1c(Cl)cccc1Cl)C2=O [Example 5D]
7,10.64,CCN(CC)CCOc1ccc(Cl)c(C(=O)OCN2C(=O)c3c(C(C)C)cc(OC)cc3S2(=O)=O)c1Cl [Example 1AV]
